Measurements: ChEMBL document CHEMBL3044750, “Preparation of N-substituted aryl and alkyl carbamates and their inhibitory effect on oat seed germination” (2002)

Assays:
Avena sativa [1] = test: Inhibition of Avena sativa var. Zenshin seed germination assessed as root length at 1 uM after 6 days (reference value: 7 cm); type: functional
Avena sativa [2] = test: Inhibition of Avena sativa var. Zenshin seed germination assessed as coleoptile length at 1 uM after 6 days (reference value: 9.5 cm); type: functional

Compound	Activity (Avena sativa [1]) [cm]	Activity (Avena sativa [2]) [cm]
O=C(NCSc1ccccc1)Oc1ccc(Cl)cc1Cl [2,4-DICHLOROPHENYL PHENYLTHIOMETHYLCARBAMATE]	0	0
O=C(Nc1ccccc1)OCCCc1ccccc1 [3-PHENYLPROPYL PHENYLCARBAMATE]	1.9	3.5
O=C(NCSc1ccccc1)OCCCc1ccccc1 [3-PHENYLPROPYL PHENYLTHIOMETHYLCARBAMATE]	3.9	4.6
COc1ccc(COC(=O)NCSc2ccccc2)cc1 [4-METHOXYBENZYL PHENYLTHIOMETHYLCARBAMATE]	0.9	1.4
O=C(Nc1ccccc1)OCCCCc1ccccc1 [4-PHENYLBUTYL PHENYLCARBAMATE]	1.2	4.9
O=C(Nc1ccccc1)OCCCCCc1ccccc1 [5-PHENYLPENTYL PHENYLCARBAMATE]	2.1	6.6
O=C(NCCc1ccccc1)OCc1ccccc1 [BENZYL PHENETHYLCARBAMATE]	2.8	5.2
O=C(Nc1ccccc1)OCc1ccccc1 [BENZYL PHENYLCARBAMATE]	1.2	2.8
O=C(NCSc1ccccc1)OCc1ccccc1 [BENZYL PHENYLTHIOMETHYLCARBAMATE]	0	0
CCCCOC(=O)NCSc1ccccc1 [BUTYL PHENYLTHIOMETHYLCARBAMATE]	3.4	2.6
CC(C)OC(=O)Nc1cccc(Cl)c1 [CHLORPROPHAM]	0	0
O=C(Nc1ccccc1)OC/C=C/c1ccccc1 [CINNAMYL PHENYLCARBAMATE]	0.4	3.4
O=C(NCSc1ccccc1)OC/C=C/c1ccccc1 [CINNAMYL PHENYLTHIOMETHYLCARBAMATE]	2.6	2.2
CCOC(=O)NCSc1ccccc1 [ETHYL PHENYLTHIOMETHYLCARBAMATE]	1	0.8
CC(C)OC(=O)NCSc1ccccc1 [ISOPROPYL PHENYLTHIOMETHYLCARBAMATE]	0	0
COC(=O)NCSc1ccccc1 [METHYL PHENYLTHIOMETHYLCARBAMATE]	0	0
O=C(Nc1ccccc1)OCCc1ccccc1 [PHENETHYL PHENYLCARBAMATE]	0.2	0.3
O=C(NCSc1ccccc1)OCCc1ccccc1 [PHENETHYL PHENYLTHIOMETHYLCARBAMATE]	0	0
O=C(Nc1ccc(Cl)cc1)Oc1ccccc1 [PHENYL 4-CHLOROPHENYLCARBAMATE]	4.1	8.1
O=C(Nc1ccc(F)cc1)Oc1ccccc1 [PHENYL 4-FLUOROPHENYLCARBAMATE]	4.8	6.4
COc1ccc(NC(=O)Oc2ccccc2)cc1 [PHENYL 4-METHOXYPHENYLCARBAMATE]	7.7	8.3
Cc1cccc(NC(=O)Oc2ccccc2)c1 [PHENYL M-TOLYLCARBAMATE]	4.4	5.6
O=C(Nc1ccccc1)Oc1ccccc1 [PHENYL PHENYLCARBAMATE]	1.9	4.7
O=C(NCSc1ccccc1)Oc1ccccc1 [PHENYL PHENYLTHIOMETHYLCARBAMATE]	0	0
CCCOC(=O)NCSc1ccccc1 [PROPYL PHENYLTHIOMETHYLCARBAMATE]	1.4	1.7
